Assay results from US12644087B2, “Methods to generate polymer scaffolds having a gradient of crosslinking density” (The University of North Carolina at Chapel Hill, priority 2016, dated 2026).

Test system: primary human small intestinal epithelial cells
Method: Continuous monolayers of primary human small intestinal epithelial cells were generated on the crosslinked collagen hydrogel scaffold. […] (FIG. 3B) Fluorescence images of cells showing the EDU staining (white/light gray) and Hoechst 33342 (dark gray). The cell culture time was 10 days for A and B. (FIG. 3C) TEER vs. time (n=3 scaffolds).
To test this hypothesis, human small intestinal epithelial cells were plated on a hydrogel scaffold prepared in this manner, and the cell growth and TEER were monitored for up to 14 days (FIG. 3C). […] At day 10, the cells were stained with EDU (3-h pulse) to assess proliferating cells and Hoecsht nuclear stain to enable assessment of cell coverage across the scaffold (FIGS. 3A and 3B).

**Q.** With Lucifer yellow as the substance, how does the “permeability of Lucifer yellow (apical to basal diffusion)” value read?
**A.** The value was 2.4±0.7 ×10^−8 cm·s^−1.
